Reference: patent US12195427B2, “MASP-2 inhibitors and methods of use” (priority 2018, dated 2025)

Target: MASP-2 CCP2-SP (Homo sapiens (Human), UniProt O00187)
Assay: MASP-2 co-crystallization, X-ray crystallography and structure analysis (H-bonds, van der Waals contacts);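 on Ligand-pharmacophore element distance, pharmacophore element C2: distance from averaged pharmacophore element to bound ligand; missing value means element absent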;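 on Ligand-pharmacophore element distance, pharmacophore element C3: distance from averaged pharmacophore element to bound ligand; missing value means element absent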;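 on Ligand-pharmacophore element distance, pharmacophore element C4: distance from averaged pharmacophore element to bound ligand; missing value means element absent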;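 on Ligand-pharmacophore element distance, pharmacophore element C5: distance from averaged pharmacophore element to bound ligand; missing value means element absent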
Set-up: van der Waals contact distance, MASP-2 HIS 483 atom CD2 / van der Waals contact distance, MASP-2 HIS 483 atom NE2 / van der Waals contact distance, SER 654 C to compound atom / van der Waals contact distance, SER 654 O to compound atom / van der Waals contact distance, TRP 655 C to compound atom / van der Waals contact distance, MASP-2 GLY 528 atom CA / van der Waals contact distance TRP 655 atom CZ3 / van der Waals contact distance TRP 655 atom N / van der Waals contact distance TRP 655 atom CE3 / van der Waals contact distance GLY 656 atom C / van der Waals contact distance GLY 656 atom CA / van der Waals contact distance GLY 656 atom O / van der Waals contact distance, MASP-2 TYR 607 atom CD1 / van der Waals contact distance, MASP-2 PRO 606 atom O / d(C3,CA1) / d(CA1,N1)2 / d(H4,O1) / d(H4,O2) / d(O1,O2) / d(CA1,O2) / d(CA6,O1) / d(CA6,O2) / d(CA1,C5) / d(O2,H3) / d(N2,C2) / d(CA5,N2) / d(N2,C4) / d(N2,C6) / d(N2,CA3) / d(N2,O3) / d(O4,H2): unit not given beside the values
Settings: for Ligand-pharmacophore element distance, pharmacophore element C2 / Ligand-pharmacophore element distance, pharmacophore element C3 / Ligand-pharmacophore element distance, pharmacophore element C4 / Ligand-pharmacophore element distance, pharmacophore element C5 / Ligand-pharmacophore element distance, pharmacophore element C6 / Ligand-pharmacophore element distance, pharmacophore element C7 / Ligand-pharmacophore element distance, pharmacophore element CA1 / Ligand-pharmacophore element distance, pharmacophore element CA2 / Ligand-pharmacophore element distance, pharmacophore element CA3 / Ligand-pharmacophore element distance, pharmacophore element CA4 / Ligand-pharmacophore element distance, pharmacophore element CA5 / Ligand-pharmacophore element distance, pharmacophore element CA6: Table A4-1; for A(N1, CA1, O1) a): all compounds with protonatable center N1 except Methyl-amino-pyridine; for Pharmacophore protein distance to MET_658 (first MET_658 column) / Pharmacophore protein distance to MET_658 (second MET_658 column) / Pharmacophore protein distance to GLY_528 / Pharmacophore protein distance to PHE_529 / Pharmacophore protein distance to PRO_608 / Pharmacophore protein distance to SER_611 / Pharmacophore protein distance to TRP_655: Table A8-6, nearest protein atom in cell to the left; for Pharmacophore protein distance to MET_658 (first MET_658 column): 6th residue column; for Pharmacophore protein distance to MET_658 (second MET_658 column): 9th residue column; for Pharmacophore protein distance to TRP_655: pharmacophore elements C6, CA3, O3, H1
From the text: This example illustrates the preparation of recombinant MASP-2 protein, based on UniProt O00187, human mannan-binding lectin serine protease 2. Expression constructs for human MASP-2 CCP2-SP and CCP2-SP-6HIS were generated for recombinant expression in E. coli cells.
Typically, crystallization hits were obtained by screening against […] 96-well crystallization reagent kits (GRAS6, GRAS2, Hampton Research; MORPHEUS, Molecular Dimensions; Wizard 1&2 Cryo, Rigaku Reagents) and crystal growth was inspected by optical microscopy. Crystals were used directly or further optimized for X-ray diffraction. Crystals were captured with cryogenic loops and dipped into liquid nitrogen directly or cryoprotected with a 20% glycerol in crystallization formulation before flash-cooling in liquid nitrogen.
Thereafter crystals are transferred once or twice for soaking within the crystallization solution containing the MASP-2 inhibitor.
Crystals were diffracted with synchrotron X-rays of […] and X-ray diffraction datasets were collected at beamlines SSRL BL9-2, BL14-1, BL12-2 as well as ALS sector 5 using Dectris Pilatus and Eiger detectors. Structures were determined by molecular replacement using portions of the structure 1Q3X as search models and partially refined with Buster 2.10.2 or Refmac 5.8. […] When multiple ligand poses were observed, for instance arising from multiple molecules in the asymmetric unit or refined dual poses within the same molecule, only one pose was selected and analyzed.
LigPlot+ calls these ‘nonbonded contacts’ or ‘hydrophobic contacts’. Despite the name, there are atom pairings that include possible H-bonds. Thus, in some instances, the Table A2 also contains H-bond interactions.

[1] = Table A5-1 pharmacophore: distance between elements, S2/S1 region
[2] = Table A5-2 pharmacophore distance, S3/S4 region
[3] = Table A7-1, between pharmacophore elements of the bound compound
[4] = Table A7-2, between pharmacophore elements of the bound compound

Sequence of MASP-2 CCP2-SP (O00187 445-686): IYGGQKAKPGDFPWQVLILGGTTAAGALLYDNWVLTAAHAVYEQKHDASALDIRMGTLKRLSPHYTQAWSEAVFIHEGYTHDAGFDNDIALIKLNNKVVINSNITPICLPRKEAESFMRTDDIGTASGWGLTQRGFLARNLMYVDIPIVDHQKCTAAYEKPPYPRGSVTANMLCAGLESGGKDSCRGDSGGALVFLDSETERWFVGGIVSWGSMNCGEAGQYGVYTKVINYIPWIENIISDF
Sequence of MASP-2 CCP2-SP (O00187 364-432 partner): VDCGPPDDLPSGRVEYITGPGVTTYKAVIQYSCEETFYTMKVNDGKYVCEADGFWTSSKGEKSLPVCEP

## C[C@H](NC(=O)[C@H]1C[C@@H](c2ccccc2)CCN1)C(=O)NCc1cc(Cl)ccc1O.Cl [1078_4]
  Ligand-pharmacophore element distance, pharmacophore element C2: 0.67
  Ligand-pharmacophore element distance, pharmacophore element C3: 0
  Ligand-pharmacophore element distance, pharmacophore element C4: 0
  Ligand-pharmacophore element distance, pharmacophore element C5: 0.52
  Ligand-pharmacophore element distance, pharmacophore element C6: 0
  Ligand-pharmacophore element distance, pharmacophore element C7: 0
  Ligand-pharmacophore element distance, pharmacophore element CA1: 1.62
  Ligand-pharmacophore element distance, pharmacophore element CA2: 0.59
  Ligand-pharmacophore element distance, pharmacophore element CA3: 0
  Ligand-pharmacophore element distance, pharmacophore element CA4: 0
  Ligand-pharmacophore element distance, pharmacophore element CA5: 0
  Ligand-pharmacophore element distance, pharmacophore element CA6: 0
[1]
  d(CA1,C5): 3.13
  d(CA1,O1): 4.56
  d(CA1,O2): 4.61
  d(CA1,O4): 2.76
  d(H4,O1): 2.27
  d(H4,O2): 2.64
  d(O1,O2): 3.39
  d(O4,H2): 0.97
[2]
  d(N2,C2): 1.51
  d(N2,CA2): 5.66
  d(O2,H3): 2.72
  d(O2,N2): 2.70
Table A6-1 pharmacophore angle
  a(C5, CA1, O1): 161.60
  a(CA1, O1, O2): 112.48
  a(CA1, O4, H2): 128.57
  a(O1, CA1, O4): 65.56
  a(O1, O2, H4): 93.17
Table A6-2 pharmacophore angle
  a(O1, O2, H3): 141.42
  a(O1, O2, N2): 146.07
  a(O2, N2, C2): 126.96
  a(O2, N2, CA2): 155.54
[3]
  Pharmacophore torsion angle a(C5, CA1, O1, H4): 32.90
  Pharmacophore torsion angle a(H4, O1, O2, H3): −123.98
  Pharmacophore torsion angle a(H4, O1, O2, N2): −113.42
  Pharmacophore torsion angle a(O1, H4, O2, CA1): −58.33
  Pharmacophore torsion angle a(O1, O2, N2, C2): 124.98
[4]
  Pharmacophore torsion angle a(O1, O2, N2, CA2): 136.93

## N=C(N)c1ccc(CNC(=O)[C@@H]2CCN2C(=O)[C@H]2Cc3ccccc3CN2)cc1 [compound 1034]
Table A1 (H-Bonds), ASP 627 OD1
  H-bond distance to MASP-2 ASP 627 atom OD1: 2.9
Table A1 (H-Bonds), GLN 665 OE1
  H-bond distance to MASP-2 GLN 665 atom OE1: 3.26
Table A1 (H-Bonds), GLN 665 OE1, second column
  H-bond distance to MASP-2 GLN 665 atom OE1 (second bond): 2.8
Table A1 (H-Bonds), GLY 656 N
  H-bond distance to MASP-2 GLY 656 atom N: 2.91
Table A1 (H-Bonds), SER 628 O
  H-bond distance to MASP-2 SER 628 atom O: 2.91
Table A1 (H-Bonds), SER 654 O
  H-bond distance to MASP-2 SER 654 atom O: 2.99
Table A1 (H-Bonds), SER 657 O
  H-bond distance to MASP-2 SER 657 atom O: 2.75
Table A2-4
  van der Waals contact distance, MASP-2 PRO 606 atom CG: 3.71
Table A2-10, ARG 630 NH2, GLY 631, ASP 632, SER 633
  van der Waals contact distance, MASP-2 amino acid atom to compound atom: 3.11
Table A2-11
  van der Waals contact distance, SER 654 C to compound atom: 3.83
Table A2-12
  van der Waals contact distance, TRP 655 CA to compound atom: 3.42
Table A2-13, MASP-2 TRP 655 O
  van der Waals contact distance TRP 655 atom O: 3.77
Table A2-14, MASP-2 SER 657 C, columns c12-c13 (inferred)
  van der Waals contact distance SER 657 atom C: 3.51
  Ligand-pharmacophore element distance, pharmacophore element C2: 2.4
  Ligand-pharmacophore element distance, pharmacophore element C3: 0
  Ligand-pharmacophore element distance, pharmacophore element C4: 0
  Ligand-pharmacophore element distance, pharmacophore element C5: 0
  Ligand-pharmacophore element distance, pharmacophore element C6: 0
  Ligand-pharmacophore element distance, pharmacophore element C7: 0
  Ligand-pharmacophore element distance, pharmacophore element CA1: 0.28
  Ligand-pharmacophore element distance, pharmacophore element CA2: 0
  Ligand-pharmacophore element distance, pharmacophore element CA3: 0
  Ligand-pharmacophore element distance, pharmacophore element CA4: 0
  Ligand-pharmacophore element distance, pharmacophore element CA5: 0.98
  Ligand-pharmacophore element distance, pharmacophore element CA6: 0
  Pharmacophore protein distance to MET_658 (first MET_658 column): 2.86
  Pharmacophore protein distance to MET_658 (second MET_658 column): 3.46
  Pharmacophore protein distance to GLY_528: 3.79
  Pharmacophore protein distance to PHE_529: 3.09
  Pharmacophore protein distance to PRO_608: 2.97
  Pharmacophore protein distance to SER_611: 3.32
  Pharmacophore protein distance to TRP_655: 3.27
Table A4-2, element H1
  Ligand-pharmacophore element distance, pharmacophore element H1: 0
Table A4-2, element H2
  Ligand-pharmacophore element distance, pharmacophore element H2: 0
Table A4-2, element H3
  Ligand-pharmacophore element distance, pharmacophore element H3: 1.08
Table A4-2, element H4
  Ligand-pharmacophore element distance, pharmacophore element H4: 3.56
Table A4-2, element N1
  Ligand-pharmacophore element distance, pharmacophore element N1: 1.87
Table A4-2, element N2
  Ligand-pharmacophore element distance, pharmacophore element N2: 0.86
Table A4-2, element O1
  Ligand-pharmacophore element distance, pharmacophore element O1: 0.39
Table A4-2, element O2
  Ligand-pharmacophore element distance, pharmacophore element O2: 0.49
Table A4-2, element O3
  Ligand-pharmacophore element distance, pharmacophore element O3: 0
Table A4-2, element O4
  Ligand-pharmacophore element distance, pharmacophore element O4: 0
[1]
  d(CA1,N1): 3.64
  d(CA1,O1): 4.35
  d(CA1,O2): 4.19
  d(H4,O1): 4.86
  d(H4,O2): 4.31
  d(O1,O2): 3.48
[2]
  d(CA5,N2): 3.72
  d(N2,C2): 2.26
  d(O2,H3): 2.74
  d(O2,N2): 3.03
Table A6-1 pharmacophore angle
  a(CA1, O1, O2): 111.64
  a(O1, O2, H4): 135.95
  A(N1, CA1, O1) a): 160.69
Table A6-2 pharmacophore angle
  a(O1, O2, H3): 135.88
  a(O1, O2, N2): 137.69
  a(O2, N2, C2): 100.68
[3]
  Pharmacophore torsion angle a(H4, O1, O2, H3): 93.33
  Pharmacophore torsion angle a(H4, O1, O2, N2): 142.83
  Pharmacophore torsion angle a(N1, CA1, O2, H4): −127.27
  Pharmacophore torsion angle a(O1, H4, O2, CA1): −61.32
  Pharmacophore torsion angle a(O1, O2, N2, C2): 68.39
[4]
  Pharmacophore torsion angle a(O1, O2, N2, CA5): 137.68

## C[C@H](NC(=O)[C@@H](CCc1ccccc1)NCc1ccc(C(=O)N2CCOCC2)cc1)C(=O)NCc1ccc(C(=N)N)cc1.Cl.Cl [1153_B]
  Ligand-pharmacophore element distance, pharmacophore element C2: 10.14
  Ligand-pharmacophore element distance, pharmacophore element C3: 0
  Ligand-pharmacophore element distance, pharmacophore element C4: 0
  Ligand-pharmacophore element distance, pharmacophore element C5: 0
  Ligand-pharmacophore element distance, pharmacophore element C6: 0
  Ligand-pharmacophore element distance, pharmacophore element C7: 0
  Ligand-pharmacophore element distance, pharmacophore element CA1: 0.39
  Ligand-pharmacophore element distance, pharmacophore element CA2: 0.58
  Ligand-pharmacophore element distance, pharmacophore element CA3: 0
  Ligand-pharmacophore element distance, pharmacophore element CA4: 0
  Ligand-pharmacophore element distance, pharmacophore element CA5: 6.17
  Ligand-pharmacophore element distance, pharmacophore element CA6: 0
  Pharmacophore protein distance to MET_658 (first MET_658 column): 2.53
  Pharmacophore protein distance to MET_658 (second MET_658 column): 3.26
  Pharmacophore protein distance to GLY_528: 3.41
  Pharmacophore protein distance to PHE_529: 3.23
  Pharmacophore protein distance to PRO_608: 4.41
  Pharmacophore protein distance to SER_611: 2.46
  Pharmacophore protein distance to TRP_655: 3.42
[1]
  d(CA1,N1): 3.54
  d(CA1,O1): 5.51
  d(CA1,O2): 8.18
  d(H4,O1): 5.77
  d(H4,O2): 7.90
  d(O1,O2): 9.57
[2]
  d(CA5,N2): 3.75
  d(N2,C2): 8.53
  d(N2,CA2): 5.06
  d(N2,O3): 9.72
  d(O2,H3): 3.10
  d(O2,N2): 2.99
Table A6-1 pharmacophore angle
  a(CA1, O1, O2): 144.91
  a(O1, O2, H4): 92.62
  A(N1, CA1, O1) a): 171.50
Table A6-2 pharmacophore angle
  a(O1, O2, H3): 25.95
  a(O1, O2, N2): 44.76
  a(O2, N2, C2): 163.28
  a(O2, N2, CA2): 150.51
  a(O2, N2, O3): 165.3
[3]
  Pharmacophore torsion angle a(H4, O1, O2, H3): 70.64
  Pharmacophore torsion angle a(H4, O1, O2, N2): 133.70
  Pharmacophore torsion angle a(N1, CA1, O2, H4): 56.56
  Pharmacophore torsion angle a(O1, H4, O2, CA1): 23.08
  Pharmacophore torsion angle a(O1, O2, N2, C2): −139.94
[4]
  Pharmacophore torsion angle a(O1, O2, N2, CA2): 76.90
  Pharmacophore torsion angle a(O1, O2, N2, CA5): −161.98
  Pharmacophore torsion angle a(O1, O2, N2, O3): −144.09
